According to US12234476B2, “VCN enhancer compositions and methods of using the same” (bluebird bio, Inc., priority 2016, dated 2025):

Assays:
[1] = system: hCD34+ cells; assay: Transduction efficiency / % LVV+ (single-cell nested PCR or individual colony qPCR); format: cell-based, human; conditions: for transduction efficiency: low-transducing cell lot, individual colony qPCR (Example 11)
Experimental: (§1) Washed cells were resuspended in 2 mL Stem Cell Growth Medium (SCGM)+cytokines and transferred to a standard 12-well non-adherent tissue culture plate. Cells were maintained for an additional 6 days in a standard humidified tissue culture incubator (5% CO2) and then subjected to Vector Copy Number (VCN) analysis or single-cell nested PCR to determine transduction efficiency. Both VCN and the single-cell nested PCR assay were performed with qPCR using primers and probes specific to both the vector and an endogenous control gene. VCN was determined by dividing the amount of vector signal by the amount of the endogenous control gene. For the single-cell nested PCR assay, wells that contained a cell positive for the endogenous control gene and wells that contained a marked cell positive for both the vector and the endogenous control gene were enumerated, and the proportion of marked cells, or transduction efficiency, was calculated.
After a 7 day liquid culture, cells were collected and single-cell sorted into a 96-well plate. Cells were lysed and subjected to nested PCR to determine presence of LVV in a single cell. Percentage of cells containing both LVV and an endogenous control gene was determined from number of cells containing the endogenous control gene. […] FIG. 5B.
% LVV+: Single cells were isolated by FACS and deposited in 96-well plates containing lysis buffer. Following lysis, the viral-specific sequence from a lentiviral vector encoding a β-globin variant was amplified by PCR along with a control genomic sequence not present in the vector. The PCR products from each single cell were then analyzed by qPCR for presence of genomic sequence, indicating a successfully captured cell. […] Fraction of vector positive cells was then calculated across the entire set of sampled cells. The % LVV+ of the β0/β0 hCD34+ cells was about 77%. FIG. 18, right panel.

[2] = system: hCD34+ cells transplanted into NSG mice; assay: Engraftment and differentiation of transduced hCD34+ cells in NSG mice (flow cytometry); format: in vivo
Source text: HSCs transduced with lentivirus were transplanted into NOD/SCID Gamma (NSG) mice to assess the effect of candidate compounds on viral transduction of human long-term hematopoietic stem cells. […] Mice were housed in a pathogen-free environment per standard IACUC animal care guidelines.
Meta-analysis of NSG transplants with PGE2-treated lentiviral transduced hCD34+ cells from healthy donors (n=3). Human CD34^+ cells were transplanted into sub-myeloablated female NSG mice and bone marrow (BM) was analyzed at 4 months post-transplant. BM was harvested from both femurs of NSG mice and half of the sample was stained with anti-hCD45 for approximately 30 minutes at 4° C. […] FIG. 1A. […] FIG. 1B.
The BM was analyzed for engraftment of hCD34^+ cells. Cells were stained with an antibody cocktail recognizing various cell surface markers (CD45, CD33, CD3, CD19) and analyzed via flow cytometry.

[3] = system: Human CD34+ cells; assay: ALDP expression by intracellular staining and flow cytometry; format: cell-based; conditions: MND-ABCD1 LVV; AMN, ALD patients and healthy donors; day 4 or 5; vs PS
Source text: Human CD34^+ cells from AMN patients (FIG. 26, panels A-D), ALD patients (FIG. 26, panels E-H), and healthy donors (HD; FIG. 26, panels I-L) were transduced with a lentiviral vector (LVV) lacking a WPRE and comprising an MND promoter operably linked to a polynucleotide encoding ABCD1. […] Cultured cells were stained intracellularly for ALDP expression on day 4 or 5 and analyzed by flow cytometry.

[4] = system: hCD34+ cells transplanted into NSG mice; assay: In vivo VCN of engrafted human cells in bone marrow of NSG mice
Source text: HSCs transduced with lentivirus were transplanted into NOD/SCID Gamma (NSG) mice to assess the effect of candidate compounds on viral transduction of human long-term hematopoietic stem cells. Transduced cells were washed and resuspended in phosphate-buffered saline (PBS) and transplanted into the tail vein of sub-myeloablated adult NSG mice, with minimal residual toxicity. Mice were housed in a pathogen-free environment per standard IACUC animal care guidelines. At 4 months post-transplant bone marrow (BM) was harvested from both femurs and analyzed for both VCN and engraftment of human cells by staining with an anti-hCD45 antibody (BD #561864) followed by flow cytometry analysis.
Meta-analysis of NSG transplants with PGE2-treated lentiviral transduced hCD34+ cells from healthy donors (n=3). Human CD34^+ cells were transplanted into sub-myeloablated female NSG mice and bone marrow (BM) was analyzed at 4 months post-transplant. BM was harvested from both femurs of NSG mice and half of the sample was stained with anti-hCD45 for approximately 30 minutes at 4° C. Following incubation, samples were washed and analyzed for human CD45^+ cells via flow analysis using an anti-hCD45 antibody (BD #561864). […] FIG. 1A. The mean VCN of engrafted PGE2-treated hCD34^+ cells was about two-fold higher than the mean VCN of control cells at 4 months post-transplant. FIG. 1B.
A low-transducing cell lot of hCD34^+ cells (VCN of 0.3 under standard conditions) was transduced with lentiviral vector in the presence of protamine sulfate, PGE2, F108 (200 μg/mL or 1000 μg/mL), or the combination of PGE2 and F108 for 24 hours. Following transduction, cells were washed and immediately injected into busulfan-treated NSG mice.
Two months post-transplant, 5 mice/group were sacrificed and BM was harvested and analyzed to evaluate in vivo VCN. The in vivo VCN of engrafted cells transduced in the presence of protamine sulfate was very similar to the graft VCN (˜0.3). in vivo VCN increased approximately 2-fold in PGE2-treated cells. […] FIG. 10C.

[5] = system: long-term HSCs (CD34+CD38-CD45RA-CD90+CD49f+); assay: GFP lentiviral vector transduction of phenotypic long-term HSCs (flow cytometry); format: cell-based, human; conditions: GFP LVV; 4 days of culture
Source text: Human CD34^+ cells were transduced with a GFP lentiviral vector (LVV) and subsequently cultured in cytokine-containing media. After 4 days of culture, these cells were stained for cell surface markers that phenotypically characterize long-term HSCs (CD34^+CD38^−CD45RA^−CD90^+CD49f^+). […] The proportion of transduced phenotypic long-term HSCs increased to >90% in cells transduced in the presence of F108, with or without the supplementation of PGE2. FIG. 22.

[6] = system: hCD34+ cells; assay: Colony formation in MethoCult / methylcellulose; format: cell-based, human
Experimental: (§2) Washed cells were resuspended in 200 μL SCGM and then transferred to 3 mL aliquots of cytokine-supplemented methylcellulose (for example, Methocult M4434 Classic). 1.1 mL was then transferred to parallel 35-mm tissue culture dishes using a blunt 16-gauge needle. Dishes were maintained in a standard humidified tissue culture incubator for 12-16 days and colonies were scored for size, morphology, and cellular composition. Individual colonies were then picked for subsequent VCN analysis or the contents of an entire 35-mm dish were pooled and then subject to VCN analysis.
Colonies in MethoCult were enumerated using STEMvision (Stemcell Technologies). […] FIG. 3.

[7] = system: hCD34+ cells; assay: Vector copy number (VCN) analysis by qPCR of lentivirus-transduced hCD34+ cells (pooled or individual MethoCult colonies, liquid culture); format: cell-based, human; conditions: for VCN with increasing concentrations of PGE2: pooled colonies
Experimental: as §1, §2

## CCCCC[C@H](O)/C=C/[C@H]1[C@H](O)CC(=O)[C@@H]1C/C=C\CCCC(=O)O [PGE2, prostaglandin E2]
[1]
  transduction efficiency: ~40%
[2]; 2 and 4 months post-transplant
  effect on hCD34+ engraftment: no statistically significant effect
  proportion of myeloid (CD33+) or lymphoid (CD3+ or CD19+) cells: no significant difference
[2]; 4 months post-transplant, PGE2-treated vs control-treated
  percentage of hCD45+ cells in mouse BM (engraftment): No statistically significant difference
[3]
  number of cells expressing ALDP: increased the number of cells expressing ALDP
[4]; 4 months post-transplant, healthy donors n=3
  mean VCN of engrafted cells vs control cells: about two-fold
[4]; four months post-transplant
  increase of in vivo VCN over protamine sulfate: approximately 1.6 fold
[4]; two months post-transplant
  increase of in vivo VCN over protamine sulfate: approximately 2 fold
[5]
  proportion of phenotypic long-term HSCs expressing GFP: 45%
[6]; 24 hour transduction, 14 day MethoCult (Example 4)
  colony formation ability of transduced cells: did not alter the colony formation ability
[7]; 24 hour transduction, 14 day MethoCult pooled colonies (Example 6)
  fold increase in mean VCN compared to protamine sulfate: 2 fold
[7]; MND-ABCD1 LVV, AMN, ALD patients and healthy donors
  VCN at D7 in cytokine cultured cells and D14 pooled methylcellulose colonies: increased VCN
[7]; in the presence of F108, PGE2 increased at least 10-fold
  VCN with increasing concentrations of PGE2: does not result in a dose-dependent increase in VCN
[7]; in the presence of protamine sulfate
  VCN with increasing concentrations of PGE2: dose-dependent increase in VCN
[7]; low-transducing cell lot, 24 hours (Example 11)
  increase of mean VCN of graft vs protamine sulfate: approximately 3 fold

## protamine sulfate
[1]; IL2Rγ LVV from PrCL1 or PrCL2
  % LVV+ colonies: 20-30%
[1]; IL2Rγ LVV, transiently prepared
  % LVV+ colonies: 50-60%
[1]
  transduction efficiency: ~20%
[4]; four months post-transplant
  in vivo VCN of engrafted cells: ~0.3
[4]; two months post-transplant
  in vivo VCN of engrafted cells: ~0.3
[5]
  proportion of phenotypic long-term HSCs expressing GFP: approximately 30%
[6]; 8 μg/mL PS, 10 or 1000 μg/mL F108, 1000 μg/mL F108 with 8 μg/mL PS
  ability of hematopoietic progenitors to form colonies (erythroid or myeloid): Neither PS nor F108 significantly affected
[6]; IL2Rγ LVV (Example 26)
  colony formation: did not significantly impact colony formation
[7]; EF1α-IL2Rγ LVV, MOI 10 or 30
  VCN of pooled colonies: below 1.5
[7]; EF1α-TPP1 or MND-TPP1 LVV, MOI 5 or 15
  VCN of pooled colonies: below 1.5
[7]; F108 and PGE2 at MOI 10, protamine sulfate at MOI 25
  distribution of individual colony VCNs: 0-6
